Test results taken from PubChem BioAssay AID1259407 (Chemical Carcinogenesis Research Information System (CCRIS), 2018).
Activity calls are given as the source filed them. No rule for the calls is given here.

Tested on: CCRIS mutagenicity, Ames/micronucleus/aberration tests
Test: CCRIS mutagenicity studies
Settings: Test System: AMES SALMONELLA TYPHIMURIUM
[1] = Strain/Indicator: TA98, Metabolic Activation: NONE, Method: STANDARD PLATE
[2] = Strain/Indicator: TA98, Metabolic Activation: RAT, LIVER, S-9, AROCLOR 1254, Method: STANDARD PLATE
[3] = Strain/Indicator: TA100, Metabolic Activation: RAT, LIVER, S-9, AROCLOR 1254, Method: STANDARD PLATE
[4] = Strain/Indicator: TA1535, Metabolic Activation: NONE, Method: STANDARD PLATE
[5] = Strain/Indicator: TA1535, Metabolic Activation: RAT, LIVER, S-9, AROCLOR 1254, Method: STANDARD PLATE
[6] = Strain/Indicator: TA1537, Metabolic Activation: NONE, Method: STANDARD PLATE
[7] = Strain/Indicator: TA1537, Metabolic Activation: RAT, LIVER, S-9, AROCLOR 1254, Method: STANDARD PLATE
[8] = Strain/Indicator: TA1538, Metabolic Activation: NONE, Method: STANDARD PLATE
[9] = Strain/Indicator: TA98, Metabolic Activation: NONE, Method: PREINCUBATION
[10] = Strain/Indicator: TA100, Metabolic Activation: NONE, Method: PREINCUBATION
[11] = Strain/Indicator: TA100, Metabolic Activation: NONE, Method: STANDARD PLATE

CCOP(=O)(OCC)O/C(=C\Cl)c1ccc(Cl)cc1Cl
mutagenic call [1]: inactive; negative
mutagenic call [2]: inactive; negative
mutagenic call [3]: inactive; negative
mutagenic call (Strain/Indicator: TA100, Metabolic Activation: S-9 MIX, Method: STANDARD PLATE): inactive; negative
mutagenic call [4]: inactive; negative
mutagenic call [5]: inactive; negative
mutagenic call [6]: inactive; negative
mutagenic call [7]: inactive; negative
mutagenic call [8]: inactive; negative
mutagenic call (Strain/Indicator: TA1538, Metabolic Activation: RAT, LIVER, S-9, AROCLOR 1254, Method: STANDARD PLATE): inactive; negative

O=[N+]([O-])c1ccc2nc3ccc([N+](=O)[O-])cc3nc2c1
mutagenic call (Strain/Indicator: TA98(NR), Metabolic Activation: NONE, Method: PREINCUBATION): active; positive
mutagenic call [9]: active; positive

CCCCN(C[C@@H](CO)OCc1ccccc1)N=O
mutagenic call [10]: active; positive
mutagenic call (Strain/Indicator: TA100, Metabolic Activation: RAT, LIVER, S-9, PCB, Method: PREINCUBATION): active; positive

Nc1ccn([C@@H]2O[C@H](COP(=O)(O)O)[C@@H](O)[C@H]2O)c(=O)n1
mutagenic call (Strain/Indicator: TA97, Metabolic Activation: NONE, Method: PREINCUBATION): inactive; negative
mutagenic call (Strain/Indicator: TA97, Metabolic Activation: RAT, LIVER, S-9, AROCLOR 1254, Method: PREINCUBATION): inactive; negative
mutagenic call (Strain/Indicator: TA102, Metabolic Activation: NONE, Method: PREINCUBATION): inactive; negative
mutagenic call (Strain/Indicator: TA102, Metabolic Activation: RAT, LIVER, S-9, AROCLOR 1254, Method: PREINCUBATION): inactive; negative

CC(=O)OCCN(CCOC(C)=O)c1ccc([N+](=O)[O-])c2c(NCCCN(C)C)c3ccccc3nc12
mutagenic call [1]: active; positive
mutagenic call [11]: active; positive

OOC1CCCc2ccccc21 (stereo not given)
mutagenic call [1]: inactive; negative
mutagenic call [11]: active; positive
mutagenic call (Strain/Indicator: TA102, Metabolic Activation: NONE, Method: STANDARD PLATE): inactive; negative

O=[N+]([O-])c1cc(Cl)cc(Sc2cc(Cl)cc([N+](=O)[O-])c2O)c1O
mutagenic call [1]: inactive; negative
mutagenic call (Strain/Indicator: TA98, Metabolic Activation: RAT, LIVER, S-9, KANECHLOR 400, Method: STANDARD PLATE): inactive; negative
mutagenic call [11]: inactive; negative
mutagenic call (Strain/Indicator: TA100, Metabolic Activation: RAT, LIVER, S-9, KANECHLOR 400, Method: STANDARD PLATE): inactive; negative
mutagenic call [4]: inactive; negative
mutagenic call (Strain/Indicator: TA1535, Metabolic Activation: RAT, LIVER, S-9, KANECHLOR 400, Method: STANDARD PLATE): inactive; negative
mutagenic call [6]: inactive; negative
mutagenic call (Strain/Indicator: TA1537, Metabolic Activation: RAT, LIVER, S-9, KANECHLOR 400, Method: STANDARD PLATE): inactive; negative
mutagenic call [8]: inactive; negative
mutagenic call (Strain/Indicator: TA1538, Metabolic Activation: RAT, LIVER, S-9, KANECHLOR 400, Method: STANDARD PLATE): inactive; negative

CC(=O)OCc1c2cccc3ccc4cc5cccc6ccc1c(c65)c4c32
mutagenic call [1]: active; positive
mutagenic call [11]: inactive; negative

CCCCCNC(=O)/C=C/c1ccc([N+](=O)[O-])o1
mutagenic call [9]: active; positive

C/C(C(=O)O)=C(\Cl)C(=O)O
mutagenic call [9]: inactive; negative
mutagenic call [10]: inactive; negative
mutagenic call (Strain/Indicator: TA104, Metabolic Activation: NONE, Method: PREINCUBATION): inactive; negative

O=C(/C=C/c1ccccc1)c1ccc(-c2ccccc2)cc1
mutagenic call [1]: inactive; negative
mutagenic call [2]: inactive; negative
mutagenic call [11]: inactive; negative
mutagenic call [3]: inactive; negative

CC(=O)O[C@@H]1[C@@H](O)[C@H](O[C@H]2[C@H](OC(=O)[C@H]3CC[C@@H]4[C@H](C3)O[C@@]3(C[C@H](OC(=O)/C=C/c5ccccc5)[C@H](C)CO3)[C@]43CO3)O[C@H](C)[C@@H](O)[C@@H]2OC(C)=O)O[C@H](C)[C@H]1O
mutagenic call (Strain/Indicator: TA98, Metabolic Activation: HAMSTER, LIVER, S-9, AROCLOR 1254, Method: STANDARD PLATE): inactive; negative
mutagenic call [1]: inactive; negative
mutagenic call [2]: inactive; negative
mutagenic call (Strain/Indicator: TA100, Metabolic Activation: HAMSTER, LIVER, S-9, AROCLOR 1254, Method: STANDARD PLATE): inactive; negative
mutagenic call [11]: inactive; negative
mutagenic call [3]: inactive; negative
mutagenic call (Strain/Indicator: TA1535, Metabolic Activation: HAMSTER, LIVER, S-9, AROCLOR 1254, Method: STANDARD PLATE): inactive; negative
mutagenic call [4]: inactive; negative
mutagenic call [5]: inactive; negative
mutagenic call (Strain/Indicator: TA1537, Metabolic Activation: HAMSTER, LIVER, S-9, AROCLOR 1254, Method: STANDARD PLATE): inactive; negative
mutagenic call [6]: inactive; negative
mutagenic call [7]: inactive; negative
